Results on 18 compounds are retold here after patent US11028075B2, “Therapeutic compounds and methods of use thereof” (GENENTECH, INC., priority 2018, dated 2021).

Structures can show the parent of a compound that is named as a salt.

For assay [1], the target named is T1, hNav1.7 (Homo sapiens (Human), UniProt Q15858). Kind of assay: Electrophysiological assay (EP), voltage clamp on Syncropatch 384PE, CHO cells stably expressing Nav1.7. The format is cell-based. Conditions: holding potential −50 mV, 7.5 min compound incubation, read-out: EP_SP hNav1.7 EVO IC50. In short, it runs like this:
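Whole-cell automated patch clamp was run on CHO cells stably expressing human Nav1.7 cDNA, with internal solution CsCl/EGTA pH 7.2, external solution 80 mM NaCl pH 7.4, and 0.1% Pluronic F-127. From a −50 mV holding potential: −10 mV for 10 ms, −150 mV for 20 ms, then −10 mV for 10 ms, where current was measured. Inhibition was taken after 7.5 min compound incubation, with TTX added for full block.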
Target sequence in this assay (Q15858 other isoform, or with tags, fused parts or gaps): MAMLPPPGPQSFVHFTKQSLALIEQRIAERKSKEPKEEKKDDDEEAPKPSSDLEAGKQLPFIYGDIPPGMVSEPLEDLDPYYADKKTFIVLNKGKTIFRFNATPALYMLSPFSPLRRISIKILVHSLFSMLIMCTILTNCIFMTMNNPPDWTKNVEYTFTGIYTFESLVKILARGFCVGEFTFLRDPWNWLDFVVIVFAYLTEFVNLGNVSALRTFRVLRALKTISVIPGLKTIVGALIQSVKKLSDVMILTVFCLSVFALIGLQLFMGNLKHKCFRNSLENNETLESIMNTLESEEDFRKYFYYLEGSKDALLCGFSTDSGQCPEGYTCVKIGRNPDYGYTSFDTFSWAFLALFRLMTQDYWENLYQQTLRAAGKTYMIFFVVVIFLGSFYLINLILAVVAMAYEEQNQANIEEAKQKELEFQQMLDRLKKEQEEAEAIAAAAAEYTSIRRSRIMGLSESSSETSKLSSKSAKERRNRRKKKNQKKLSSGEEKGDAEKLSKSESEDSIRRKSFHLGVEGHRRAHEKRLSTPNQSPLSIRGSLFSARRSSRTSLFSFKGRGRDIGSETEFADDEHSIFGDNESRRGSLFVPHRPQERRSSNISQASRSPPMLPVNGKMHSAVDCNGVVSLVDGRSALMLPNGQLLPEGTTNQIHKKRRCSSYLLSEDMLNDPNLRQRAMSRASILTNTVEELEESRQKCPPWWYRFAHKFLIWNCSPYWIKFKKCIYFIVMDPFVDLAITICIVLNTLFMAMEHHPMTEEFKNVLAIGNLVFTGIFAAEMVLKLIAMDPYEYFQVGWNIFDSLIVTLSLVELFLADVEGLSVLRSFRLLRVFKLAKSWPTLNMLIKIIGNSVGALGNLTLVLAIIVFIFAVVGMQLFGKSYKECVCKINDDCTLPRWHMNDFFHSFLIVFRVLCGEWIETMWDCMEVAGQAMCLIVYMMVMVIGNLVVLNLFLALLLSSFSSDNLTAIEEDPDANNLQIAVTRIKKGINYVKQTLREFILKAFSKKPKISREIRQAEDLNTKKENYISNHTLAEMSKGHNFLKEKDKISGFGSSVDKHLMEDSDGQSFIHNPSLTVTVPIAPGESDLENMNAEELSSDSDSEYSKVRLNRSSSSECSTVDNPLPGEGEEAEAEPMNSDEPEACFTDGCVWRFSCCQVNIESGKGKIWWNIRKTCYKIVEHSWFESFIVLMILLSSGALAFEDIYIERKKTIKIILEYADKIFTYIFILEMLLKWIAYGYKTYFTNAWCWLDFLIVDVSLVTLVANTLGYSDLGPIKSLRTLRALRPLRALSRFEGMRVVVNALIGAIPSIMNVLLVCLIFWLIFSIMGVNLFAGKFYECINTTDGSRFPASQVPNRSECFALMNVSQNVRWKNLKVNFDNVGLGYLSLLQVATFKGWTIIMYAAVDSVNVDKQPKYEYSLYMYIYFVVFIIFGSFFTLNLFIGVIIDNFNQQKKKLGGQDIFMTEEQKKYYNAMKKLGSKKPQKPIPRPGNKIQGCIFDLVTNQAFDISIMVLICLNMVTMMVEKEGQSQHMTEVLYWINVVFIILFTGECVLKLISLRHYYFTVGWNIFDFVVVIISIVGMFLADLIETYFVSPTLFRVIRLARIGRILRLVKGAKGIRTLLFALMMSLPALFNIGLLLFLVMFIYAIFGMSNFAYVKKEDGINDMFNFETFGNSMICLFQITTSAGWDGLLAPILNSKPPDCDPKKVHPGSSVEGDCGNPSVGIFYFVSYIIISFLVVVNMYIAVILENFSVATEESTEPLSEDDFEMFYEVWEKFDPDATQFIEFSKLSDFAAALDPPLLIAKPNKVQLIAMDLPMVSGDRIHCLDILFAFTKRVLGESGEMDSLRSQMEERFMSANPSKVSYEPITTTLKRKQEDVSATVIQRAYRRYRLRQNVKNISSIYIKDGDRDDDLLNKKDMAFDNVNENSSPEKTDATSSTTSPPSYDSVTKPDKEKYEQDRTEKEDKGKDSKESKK

Assay [2] has as its target T1, hNav1.7. Kind of assay: Tritiated compound binding to membranes from cells heterologously expressing hNav1.7 and the β1 subunit (Nav1.7 LBA). As to conditions: competitive binding vs [3H]compound, membranes with hNav1.7 and β1 subunit; read-out: Nav1.7 LBA EVO IC50. The method in brief:
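Membranes from cells expressing hNav1.7 with β1 were incubated at room temperature with a tritiated competitive Nav1.7 inhibitor plus test compound in 100 mM NaCl, 20 mM Tris pH 7.4, 0.01% BSA; nonspecific binding was set with 1 μM unlabeled compound. Incubation was 18 h with […] radioligand, or 3 h with […]. Bound ligand was filtered and counted, and IC50 came from a 4-parameter fit.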
Target sequence in this assay (Q15858 whole entry, looked up): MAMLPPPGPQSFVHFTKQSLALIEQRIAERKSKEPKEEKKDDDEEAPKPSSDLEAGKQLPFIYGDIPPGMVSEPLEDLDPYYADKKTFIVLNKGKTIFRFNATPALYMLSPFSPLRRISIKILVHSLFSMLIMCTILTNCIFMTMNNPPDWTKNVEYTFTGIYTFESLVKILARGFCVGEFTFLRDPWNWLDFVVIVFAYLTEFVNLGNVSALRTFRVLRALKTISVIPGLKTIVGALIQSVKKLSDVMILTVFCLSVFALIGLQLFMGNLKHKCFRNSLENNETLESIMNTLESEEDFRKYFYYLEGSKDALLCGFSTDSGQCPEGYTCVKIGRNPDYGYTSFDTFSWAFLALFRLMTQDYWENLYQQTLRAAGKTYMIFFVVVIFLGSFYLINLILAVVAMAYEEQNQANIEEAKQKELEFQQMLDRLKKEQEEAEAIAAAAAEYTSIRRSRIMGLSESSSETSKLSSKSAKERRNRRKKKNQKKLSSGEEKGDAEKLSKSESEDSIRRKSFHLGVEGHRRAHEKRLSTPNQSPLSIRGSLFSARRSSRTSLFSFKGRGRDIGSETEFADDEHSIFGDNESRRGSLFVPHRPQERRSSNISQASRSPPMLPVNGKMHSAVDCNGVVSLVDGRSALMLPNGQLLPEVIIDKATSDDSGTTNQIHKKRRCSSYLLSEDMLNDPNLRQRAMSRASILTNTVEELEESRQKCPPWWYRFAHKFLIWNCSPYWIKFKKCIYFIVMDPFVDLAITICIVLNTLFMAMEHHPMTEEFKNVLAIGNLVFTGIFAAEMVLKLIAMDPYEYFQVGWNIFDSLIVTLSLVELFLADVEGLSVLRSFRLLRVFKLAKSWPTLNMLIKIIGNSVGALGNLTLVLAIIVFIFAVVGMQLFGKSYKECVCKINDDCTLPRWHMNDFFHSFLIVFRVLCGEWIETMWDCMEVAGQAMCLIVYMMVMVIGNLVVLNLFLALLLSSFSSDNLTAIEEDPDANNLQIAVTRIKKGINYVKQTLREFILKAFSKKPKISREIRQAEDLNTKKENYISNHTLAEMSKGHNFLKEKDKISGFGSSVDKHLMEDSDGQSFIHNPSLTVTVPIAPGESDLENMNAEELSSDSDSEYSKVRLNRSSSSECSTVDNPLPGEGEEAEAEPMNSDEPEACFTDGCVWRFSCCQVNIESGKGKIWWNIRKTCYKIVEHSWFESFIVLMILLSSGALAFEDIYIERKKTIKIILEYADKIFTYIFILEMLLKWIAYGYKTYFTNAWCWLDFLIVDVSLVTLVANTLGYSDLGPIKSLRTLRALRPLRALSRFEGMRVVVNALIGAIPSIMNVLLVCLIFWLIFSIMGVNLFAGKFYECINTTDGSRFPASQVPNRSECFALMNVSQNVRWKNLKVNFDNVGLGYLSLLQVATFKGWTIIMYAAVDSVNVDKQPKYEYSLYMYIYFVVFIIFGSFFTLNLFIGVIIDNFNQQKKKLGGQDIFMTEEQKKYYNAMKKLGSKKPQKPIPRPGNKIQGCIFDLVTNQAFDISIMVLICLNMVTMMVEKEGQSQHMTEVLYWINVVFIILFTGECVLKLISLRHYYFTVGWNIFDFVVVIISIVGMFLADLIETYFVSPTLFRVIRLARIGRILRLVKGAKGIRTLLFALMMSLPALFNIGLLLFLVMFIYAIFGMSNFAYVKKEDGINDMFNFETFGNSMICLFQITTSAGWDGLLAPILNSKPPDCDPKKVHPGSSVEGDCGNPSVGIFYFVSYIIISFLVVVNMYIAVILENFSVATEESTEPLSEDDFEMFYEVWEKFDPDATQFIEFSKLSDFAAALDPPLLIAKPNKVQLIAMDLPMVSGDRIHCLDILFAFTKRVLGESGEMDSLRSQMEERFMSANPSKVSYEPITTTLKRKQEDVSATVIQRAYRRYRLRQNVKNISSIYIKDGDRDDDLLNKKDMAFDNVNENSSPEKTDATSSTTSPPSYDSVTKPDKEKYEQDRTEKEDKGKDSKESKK
Target sequence in this assay (Q07699 whole entry partner, looked up): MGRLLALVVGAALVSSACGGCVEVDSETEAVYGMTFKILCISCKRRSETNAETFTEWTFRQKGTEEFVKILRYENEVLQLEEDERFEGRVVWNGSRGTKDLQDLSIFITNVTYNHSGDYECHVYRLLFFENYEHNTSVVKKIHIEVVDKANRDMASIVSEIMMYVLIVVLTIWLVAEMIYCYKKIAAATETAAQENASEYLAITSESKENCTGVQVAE

Broadly, the IC50 is the concentration that inhibits the measured activity by half. On to `CN(C)[C@H]1C[C@@H](c2cccc(C(F)(F)F)c2)CC[C@@H]1n1ccc2cc(S(=O)(=O)Nc3ccncn3)c(F)cc21` [Example 10, 1-((1S,2S,4S)-2-(Dimethylamino)-4-(3-(trifluoromethyl)phenyl)cyclohexyl)-6-fluoro-N-(pyrimidin-4-yl)-1H-indole-5-sulfonamide formate], for which the IC50 turned out to be 2.74 nM on hNav1.7 [1] and 25.8 nM at hNav1.7 [2].
With `CN(C)[C@H]1C[C@@H](c2cccc(OC3CC3)c2)CC[C@@H]1Nc1cc(F)c(S(=O)(=O)Nc2ccncn2)cc1Cl` [Example 43], the figures for the IC50 at hNav1.7 [1] and on hNav1.7 [2] were 1.12 nM and 7 nM, respectively.
Take `CCN[C@H]1C[C@@H](c2cccc(C(F)(F)F)c2)CC[C@@H]1Oc1cc(F)c(S(=O)(=O)Nc2ccncn2)cc1Cl` [Example 68, 5-chloro-4-(((1S,2S,4S)-2-(ethylamino)-4-(3-(trifluoromethyl)phenyl)cyclohexyl)oxy)-2-fluoro-N-(pyrimidin-4-yl)benzenesulfonamide formate]: the IC50 on hNav1.7 [1] worked out at 0.737 nM; at hNav1.7 [2] it was 1.69 nM.
Consider `CN(C)[C@H]1C[C@@H](c2ccc(F)c(C(F)(F)F)c2)CC[C@@H]1Nc1cc(F)c(S(=O)(=O)Nc2ccncn2)cc1Cl` [Example 6, 5-chloro-4-(((1S,2S,4S)-2-(dimethylamino)-4-(4-fluoro-3-(trifluoromethyl)phenyl)-cyclohexyl)amino)-2-fluoro-N-(pyrimidin-4-yl)benzenesulfonamide], for which the IC50 was 0.765 nM on hNav1.7 [1] and 0.791 nM on hNav1.7 [2].
Turning to `CN(C)[C@H]1C[C@@H](c2cccc(C(F)(F)F)c2)CC[C@@H]1N1C(=O)COc2cc(S(=O)(=O)Nc3ccncn3)c(F)cc21` [Example 1, 4-((1S,2S,4S)-2-(Dimethylamino)-4-(3-(trifluoromethyl)phenyl)cyclohexyl)-6-fluoro-3-oxo-N-(pyrimidin-4-yl)-3,4-dihydro-2H-benzo[b][1,4]oxazine-7-sulfonamide formate], the IC50 on hNav1.7 [1] came to 3.13 nM; at hNav1.7 [2], 18.8 nM.
On the same counts, the results for `CN(C)[C@H]1C[C@@H](c2cc(Cl)ccc2Cl)CC[C@@H]1Oc1cc(F)c(S(=O)(=O)Nc2ccncn2)cc1Cl` [Example 65, 5-chloro-4-(((1S,2S,4S)-4-(2,5-dichlorophenyl)-2-(dimethylamino)cyclohexyl)oxy)-2-fluoro-N-(pyrimidin-4-yl)benzenesulfonamide formate] are 1.03 nM and 5.41 nM.
`CN(C)[C@H]1C[C@@H](c2cc(C(F)(F)F)cc(C(F)(F)F)c2)CC[C@@H]1Nc1cc(F)c(S(=O)(=O)Nc2ccncn2)cc1Cl` [Example 12, 4-(((1S,2S,4S)-4-(3,5-bis(trifluoromethyl)phenyl)-2-(dimethylamino)cyclohexyl)amino)-5-chloro-2-fluoro-N-(pyrimidin-4-yl)benzenesulfonamide]: the results for the IC50 on hNav1.7 [1] and at hNav1.7 [2] were 0.531 nM and 0.473 nM, respectively.
Taken in the same sequence, the figures for `CN(CCO)[C@H]1C[C@@H](c2cccc(C(F)(F)F)c2)CC[C@@H]1Oc1cc(F)c(S(=O)(=O)Nc2ccncn2)cc1Cl` [Example 66, 5-chloro-2-fluoro-4-(((1S,2S,4S)-2-((2-hydroxyethyl)(methyl)amino)-4-(3-(trifluoromethyl)-phenyl)cyclohexyl)oxy)-N-(pyrimidin-4-yl)benzenesulfonamide formate] were 0.732 nM and 2.59 nM.
Take `O=S(=O)(Nc1ccncn1)c1cc(O)c(N[C@H]2CC[C@H](c3cccc(C(F)(F)F)c3)C[C@@H]2N2CCCC2)cc1F` [Example 46, 2-Fluoro-5-hydroxy-N-(pyrimidin-4-yl)-4-(((1S,2S,4S)-2-(pyrrolidin-1-yl)-4-(3-(trifluoromethyl)-phenyl)cyclohexyl)amino)benzenesulfonamide formate]: the IC50 at hNav1.7 [1] turned out to be 1.9 nM; at hNav1.7 [2], 24.5 nM.
Consider `CN(C)[C@H]1C[C@@H](c2ccccc2C(F)(F)F)CC[C@@H]1Nc1cc(F)c(S(=O)(=O)Nc2ccncn2)cc1Cl` (single isomer, unassigned) [Example 77], for which the IC50 is 211 nM on hNav1.7 [1] and 643 nM at hNav1.7 [2].
Turning to `O=S(=O)(Nc1ccncn1)c1cc(F)c(N[C@H]2CC[C@H](c3ccc(F)c(C(F)(F)F)c3)C[C@@H]2N2CCCC2)cc1F` [Example 84, 2,5-difluoro-4-(((1S,2S,4S)-4-(4-fluoro-3-(trifluoromethyl)phenyl)-2-(pyrrolidin-1-yl)cyclohexyl)-amino)-N-(pyrimidin-4-yl)benzenesulfonamide], the IC50 was found to be 0.52 nM on hNav1.7 [1] and 0.877 nM at hNav1.7 [2].
`CN(C)[C@H]1C[C@@H](c2cc(C(F)(F)F)ccc2Cl)CC[C@@H]1Oc1cc(F)c(S(=O)(=O)Nc2ccncn2)cc1Cl` [Example 86, 5-chloro-4-(((1S,2S,4S)-4-(2-chloro-5-(trifluoromethyl)phenyl)-2-(dimethylamino)-cyclohexyl)oxy)-2-fluoro-N-(pyrimidin-4-yl)benzenesulfonamide]: the IC50 was 0.819 nM at hNav1.7 [1] and 3.28 nM at hNav1.7 [2].
As to `CN(C)[C@H]1C[C@@H](c2cc(C(F)(F)F)ccc2F)CC[C@@H]1Oc1cc(F)c(S(=O)(=O)Nc2ccncn2)cc1Cl` [Example 74, 5-chloro-4-(((1S,2S,4S)-2-(dimethylamino)-4-(2-fluoro-5-(trifluoromethyl)phenyl)cyclohexyl)oxy)-2-fluoro-N-(pyrimidin-4-yl)benzenesulfonamide], the results for the IC50 on hNav1.7 [1] and at hNav1.7 [2] were 1.85 nM and 4.01 nM, respectively.
Turning to `CN(C)CC(=O)N[C@H]1C[C@@H](c2cccc(C(F)(F)F)c2)CC[C@@H]1Nc1cc(F)c(S(=O)(=O)Nc2ccncn2)cc1Cl` [Example 28, N-((1S,2S,5S)-2-((2-chloro-5-fluoro-4-(N-(pyrimidin-4-yl)sulfamoyl)phenyl)amino)-5-(3-(trifluoromethyl)phenyl)cyclohexyl)-2-(dimethylamino)acetamide], the 50% inhibitory concentration (IC50) at hNav1.7 [1] is 36.3 nM; on hNav1.7 [2], 84 nM.
On the same counts, the results for `CN(C)[C@H]1CN(c2cc(C(F)(F)F)ccn2)CC[C@@H]1Nc1ccc(S(=O)(=O)Nc2ccncn2)c(F)c1` [Example 72, 4-(((3S,4S)-3-(Dimethylamino)-1-(4-(trifluoromethyl)pyridin-2-yl)piperidin-4-yl)amino)-2-fluoro-N-(pyrimidin-4-yl)benzenesulfonamide formate] are 23.1 nM and 274 nM.
Turning to `CN(C)[C@H]1C[C@@H](c2cccc(C(F)(F)F)c2F)CC[C@@H]1Nc1cc(F)c(S(=O)(=O)Nc2ccncn2)cc1Cl` [Example 16, 5-chloro-4-(((1S,2S,4S)-2-(dimethylamino)-4-(2-fluoro-3-(trifluoromethyl)phenyl)-cyclohexyl)-amino)-2-fluoro-N-(pyrimidin-4-yl)benzenesulfonamide], the half-maximal inhibitory concentration (IC50) at hNav1.7 [1] was found to be 0.923 nM; at hNav1.7 [2], 1.2 nM.
On to `CN(C)[C@@H]1C[C@](O)(c2cccc(C(F)(F)F)c2)CC[C@H]1Nc1cc(F)c(S(=O)(=O)Nc2ccncn2)cc1Cl` (single isomer, unassigned) [Example 36, formate], for which the IC50 on hNav1.7 [1] came to 144 nM; at hNav1.7 [2] it was 309 nM.
For the compound `O=S(=O)(Nc1ccncn1)c1cc(F)c(N[C@H]2CC[C@H](c3cc(C(F)(F)F)ccc3F)C[C@@H]2N2CCCC2)cc1F` [Example 50, 2,5-difluoro-4-(((1S,2S,4S)-4-(2-fluoro-5-(trifluoromethyl)phenyl)-2-(pyrrolidin-1-yl)cyclohexyl)amino)-N-(pyrimidin-4-yl)benzenesulfonamide], the values for the IC50 at hNav1.7 [1] and on hNav1.7 [2] were 1.21 nM and 3.88 nM, respectively.
